# Tested on: Pseudoxanthomonas taiwanensis biofilm
# Test: Biofilm test in 96-microwell plates with peg lids, Crystal Violet quantification
# Assay type: cell-based
# Conditions: for Impact (biofilm reduction percentage vs no added chemicals): 45° C., 150 rpm
# Description: Authentic cooling water was obtained from a cooling water system in Germany. Proteobacteria are commonly found from cooling waters (Water Research 159 (2019): 464-479). In the biofilm-experiments the test water was spiked with Pseudoxanthomonas taiwanensis, a biofilm-forming species belonging to the phylum Proteobacter. Biofilm tests were done in simulated cooling water, SCW (prepared according to Marziya Rizvi et al., Nature Scientific Reports | (2021) 11:8353) using 96-microwell plate wells with peg lids (Thermo Fischer Scientific Inc., USA). Plates were incubated at 45° C. with a rotary shaking (150 rpm) providing high flow in each well. Wells of 96-microwell plates with peg-lids were filled with 10% authentic cooling water, 89% SCW and 1% of pure culture of Pseudoxanthomonas taiwanensis. Biofilm was grown at 45° C. with a rotary shaking (150 rpm) for 24 hours without addition of any chemical compound to be tested. After 24 hours from starting the test, the wells were emptied and a fresh solution comprising 10% authentic cooling water, 89% SCW and 1% of pure culture of Pseudoxanthomonas taiwanensis with different amounts of chemical compounds to be tested were added and the original peg-lid was placed back in place. After an additional 24 hours the wells were emptied and the biofilm amount on the pegs was quantified. The amount of biofilm formed on the peg surfaces was quantified with a staining solution by adding 200 μl of 1% Crystal Violet (Merck Millipore KGaA, Germany) in methanol to each well in a clean 96-well plate and placing the biofilm-containing peg-lid on it. After 3 minutes the wells were emptied and the wells and pegs were rinsed 3 times with tap water. Finally the peg-lid was placed in a clean 96-well plate, the attached Crystal Violet was dissolved into ethanol and the absorbance at 595 nm was measured. All parts per million (ppm) amounts given in Example 1 are as active ingredients. The Impact values are calculated as biofilm reduction percentages based on a comparison with no added chemicals. A positive value indicates a reduction in amount of biofilm whereas a negative value indicates an increase in the amount of biofilm. […] Biofilm was stained and quantified by absorbance measurement. Dosages are given as active ingredients.
SMILES,"Impact (biofilm reduction percentage vs no added chemicals) (Compound A 0.15 ppm alone, 24 h, negative = increase) [%]","Impact (biofilm reduction percentage vs no added chemicals) (Compound A 0.30 ppm alone, 24 h) [%]","Impact (biofilm reduction percentage vs no added chemicals) (Compound A 0.45 ppm alone, 24 h) [%]","Impact (biofilm reduction percentage vs no added chemicals) (Sodium hypochlorite 2 ppm alone, authentic cooling water+SCW+P. taiwanensis, 24 h on pre-grown biofilm, negative = increase) [%]","Impact (biofilm reduction percentage vs no added chemicals) (Sodium hypochlorite 4 ppm alone, 24 h, negative = increase) [%]","Impact (biofilm reduction percentage vs no added chemicals) (Sodium hypochlorite 8 ppm alone, 24 h, negative = increase) [%]","Impact (biofilm reduction percentage vs no added chemicals) (Sodium hypochlorite 12 ppm alone, 24 h, negative = increase) [%]","Impact (biofilm reduction percentage vs no added chemicals) (Sodium hypochlorite 16 ppm alone, 24 h) [%]","Dosage required to reach noticeable biofilm reduction efficacy (Sodium hypochlorite on its own, as active compound) [ppm]"
"Cc1ccc(S(=O)(=O)C=CC#N)cc1 [Compound A, 3-[(4-methylphenyl)sulphonyl]-2-propenenitrile]",−19,2,8,–,–,–,–,–,–
OCl [Sodium hypochlorite],–,–,–,−30,−27,−25,−10,6,16

# Source: patent publication US20250059074A1, “ANTIMICROBIAL SYSTEM AND METHOD” (KEMIRA OYJ, priority 2021, published 2025)
